This is an account of results in patent publication US10246442B2, “4-Aminoquinazolin compounds as prolyl hydroxylase inhibitors” (JANSSEN PHARMACEUTICA NV, priority 2011, dated 2019).

Each structure is given as a SMILES string.

In assay [1] the target is PHD2181-417 (Homo sapiens (Human), UniProt Q9GZT9). Put plainly: PHD enzymatic assay ([14C]-succinic acid production). Format: biochemical. Conditions: purified PHD2181-417, HIF-1α peptide substrate, 30 min pre-incubation; average of results. In outline: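 Recombinant human PHD2 (aa 181-417, E. coli-expressed, tags cleaved) with peptide substrate (10 μM) and [5-14C]-2-oxoglutarate in Tris pH 7.5 with catalase, DTT and ascorbate, 10 min reaction after 30 min compound pre-incubation; compounds at 100 μM final, 1% DMSO. [14C]-succinate separated by DNP precipitation and beta-counted; IC50 from three-parameter logistic fit.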

Assay [2] has as its system Erythropoietin secretion, Hep-3B cells. Put plainly: Cellular assay: EPO secretion in Hep-3B cells. Format: cell-based. Conditions: Homo sapiens, Hep3B, 100 μM compound, 24 hours, percent of EPO secretion relative to assay control compound 7-[(4-Chloro-phenyl)-(5-methyl-isoxazol-3-ylamino)-methyl]-quinolin-8-ol, read-out: Cellular % EPO Stimulation. The method in brief:
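Compounds at 100 μM final were added to Hep-3B cells 24 h after plating and left for 24 h. Secreted EPO in supernatant measured by MSD electrochemiluminescence immunoassay. Reported as percent EPO secretion relative to an 8-hydroxyquinoline reference control compound.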

Sequence of PHD2181-417 (Q9GZT9 181-417): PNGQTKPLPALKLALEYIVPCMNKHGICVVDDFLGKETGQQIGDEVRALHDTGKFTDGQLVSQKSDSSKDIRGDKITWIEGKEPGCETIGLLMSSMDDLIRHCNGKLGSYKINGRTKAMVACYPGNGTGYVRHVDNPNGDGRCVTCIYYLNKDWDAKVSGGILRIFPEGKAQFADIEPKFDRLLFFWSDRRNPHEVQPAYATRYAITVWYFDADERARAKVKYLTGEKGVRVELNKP

With `O=C(O)c1cnn(-c2nc(N3CCOCC3)c3cc(OC4CCCCC4)ccc3n2)c1` [Example 172, 1-(6-(cyclohexyloxy)-4-morpholinoquinazolin-2-yl)-1H-pyrazole-4-carboxylic acid], in assay [1], the “Enzyme pIC50” value is on record as 6.4. Also, the activation at 100 µM in assay [2] amounted to 18%.

Turning to `O=C(O)c1cnn(-c2nc(N3CCCC3)c3cc(Oc4ccc(Cl)cc4)ccc3n2)c1` [Example 61, 1-(6-(4-Chlorophenoxy)-4-(pyrrolidin-1-yl)quinazolin-2-yl)-1H-pyrazole-4-carboxylic acid], the “Enzyme pIC50” value in assay [1] was 7.3. For the same molecule, the activation at 100 µM in assay [2] stood at 96%.

With `CC(C)c1ccc2nc(-n3cc(C(=O)O)cn3)nc(N3CCCC3)c2c1` [Example 187, 1-(6-isopropyl-4-(pyrrolidin-1-yl)quinazolin-2-yl)-1H-pyrazole-4-carboxylic acid], the “Enzyme pIC50” value in assay [1] is recorded as 6.8. Also, in assay [2], the activation at 100 µM turned out to be 28%.

Take `O=C(O)c1cnn(-c2nc(N3CCSCC3)c3cc(C4CCCCC4)ccc3n2)c1` [Example 34, 1-(6-Cyclohexyl-4-thiomorpholinoquinazolin-2-yl)-1H-pyrazole-4-carboxylic acid]: in assay [1], the “Enzyme pIC50” value was 6.9. Moreover, the activation at 100 µM in assay [2] is 20%.

With `Nc1nc(-n2cc(C(=O)O)cn2)nc2ccc(C3CCCCC3)cc12` [Example 24, 1-(4-Amino-6-cyclohexylquinazolin-2-yl)-1H-pyrazole-4-carboxylic acid], in assay [1], the “Enzyme pIC50” value stood at 7.5. The activation at 100 µM in assay [2] is 36%.

For the molecule `CCCNc1nc(-n2cc(C(=O)O)cn2)nc2cc(F)c(Oc3c(C)cccc3C)cc12` [Example 8, 1-[6-(2,6-Dimethyl-phenoxy)-7-fluoro-4-propylamino-quinazolin-2-yl]-1H-pyrazole-4-carboxylic acid], the “Enzyme pIC50” value in assay [1] was 7.2. In addition, in assay [2], the activation at 100 µM is 59%.

Turning to `CN(C)c1nc(-n2cc(C(=O)O)cn2)nc2cc(Cl)c(OC3CCCCC3)cc12` [Example 137, 1-(7-chloro-6-(cyclohexyloxy)-4-(dimethylamino)quinazolin-2-yl)-1H-pyrazole-4-carboxylic acid], in assay [1], the “Enzyme pIC50” value amounted to 7.4. The activation at 100 µM in assay [2] stood at 32%.

For the molecule `CCN(CC)c1nc(-n2cc(C(=O)O)cn2)nc2ccc(C(C)C)cc12` [Example 186, 1-(4-(diethylamino)-6-isopropylquinazolin-2-yl)-1H-pyrazole-4-carboxylic acid], the “Enzyme pIC50” value in assay [1] is reported as 7.0. Moreover, the activation at 100 µM in assay [2] amounted to 43%.

Regarding `O=C(O)c1cnn(-c2nc(N3CCOCC3)c3cc(OC4CCCCC4)c(F)cc3n2)c1` [Example 100, 1-(7-Fluoro-6-(cyclohexyloxy)-4-morpholinoquinazolin-2-yl)-1H-pyrazole-4-carboxylic acid], the “Enzyme pIC50” value in assay [1] turned out to be 6.6. In addition, the activation at 100 µM in assay [2] is 18%.

With `CNc1nc(-n2cc(C(=O)O)cn2)nc2ccc(C3CCCCC3)cc12` [Example 22, 1-(6-Cyclohexyl-4-methylamino-quinazolin-2-yl)-1H-pyrazole-4-carboxylic acid], the “Enzyme pIC50” value in assay [1] came to 7.1. The activation at 100 µM in assay [2] worked out at 48%.

With `O=C(O)c1cnn(-c2nc(N3CCCC3)c3cc(C4CCCCC4)ccc3n2)c1` [Example 25, 1-(6-Cyclohexyl-4-(pyrrolidin-1-yl)quinazolin-2-yl)-1H-pyrazole-4-carboxylic acid], in assay [1], the “Enzyme pIC50” value was determined as 6.4. For the same molecule, in assay [2], the activation at 100 µM is 39%.

With `N#CC1CCN(c2nc(-n3cc(C(=O)O)cn3)nc3ccc(Oc4ccc(Cl)cc4)cc23)CC1` [Example 65, 1-(6-(4-Chlorophenoxy)-4-(4-cyanopiperidin-1-yl)quinazolin-2-yl)-1H-pyrazole-4-carboxylic acid], the “Enzyme pIC50” value in assay [1] turned out to be 7.4. In addition, the activation at 100 µM in assay [2] was determined as 77%.

For the molecule `CCN(C)c1nc(-n2cc(C(=O)O)cn2)nc2ccc(OC3CCCCC3)cc12` [Example 177, 1-(6-(cyclohexyloxy)-4-(ethyl(methyl)amino)quinazolin-2-yl)-1H-pyrazole-4-carboxylic acid], in assay [1], the “Enzyme pIC50” value came to 7.3. In addition, the activation at 100 µM in assay [2] is 56%.

In the case of `CC(=O)NC1CCN(c2nc(-n3cc(C(=O)O)cn3)nc3ccc(Oc4ccc(Cl)cc4)cc23)CC1` [Example 70, 1-(4-(4-Acetamidopiperidin-1-yl)-6-(4-chlorophenoxy)quinazolin-2-yl)-1H-pyrazole-4-carboxylic acid], the “Enzyme pIC50” value in assay [1] is recorded as 7.1. In assay [2], the activation at 100 µM came out at 16%.

With `Cc1cccc(C)c1Oc1cc2c(Nc3ccccc3)nc(-n3cc(C(=O)O)cn3)nc2cc1F` [Example 6, 1-[6-(2,6-Dimethyl-phenoxy)-7-fluoro-4-phenylamino-quinazolin-2-yl]-1H-pyrazole-4-carboxylic acid], the “Enzyme pIC50” value in assay [1] is 7.4. Besides, the activation at 100 µM in assay [2] is 22%.

Regarding `CCN(C)c1nc(-n2cc(C(=O)O)cn2)nc2cc(Cl)c(OC3CCCCC3)cc12` [Example 140, 1-(7-chloro-6-(cyclohexyloxy)-4-(ethyl(methyl)amino)quinazolin-2-yl)-1H-pyrazole-4-carboxylic acid], in assay [1], the “Enzyme pIC50” value came out at 7.2. Also, the activation at 100 µM in assay [2] was found to be 29%.

For the molecule `CC(C)c1cc2c(N3CCCC3)nc(-n3cc(C(=O)O)cn3)nc2cc1Cl` [Example 163, 1-(7-chloro-4-(pyrrolidin-1-yl)-6-isopropylquinazolin-2-yl)-1H-pyrazole-4-carboxylic acid], in assay [1], the “Enzyme pIC50” value is 7.3. Besides, the activation at 100 µM in assay [2] amounted to 26%.

As for `O=C(O)c1cnn(-c2nc(Nc3ccccc3)c3cc(C4CCCCC4)ccc3n2)c1` [Example 28, 1-(6-Cyclohexyl-4-(phenylamino)quinazolin-2-yl)-1H-pyrazole-4-carboxylic acid], the “Enzyme pIC50” value in assay [1] is given as 7.3. Also, the activation at 100 µM in assay [2] was found to be 31%.

With `CCN(CC)c1nc(-n2cc(C(=O)O)cn2)nc2ccc(C3CCCCC3)cc12` [Example 27, 1-(6-Cyclohexyl-4-(diethylamino)quinazolin-2-yl)-1H-pyrazole-4-carboxylic acid], the “Enzyme pIC50” value in assay [1] is recorded as 7.3. Further, in assay [2], the activation at 100 µM was 45%.

`CC(C)c1cc2c(N3CCOCC3)nc(-n3cc(C(=O)O)cn3)nc2cc1Cl` [Example 160, 1-(7-chloro-6-isopropyl-4-morpholinoquinazolin-2-yl)-1H-pyrazole-4-carboxylic acid]: the “Enzyme pIC50” value in assay [1] was 6.8. Moreover, the activation at 100 µM in assay [2] was 28%.

As for `CCN(C)c1nc(-n2cc(C(=O)O)cn2)nc2ccc(C(C)C)cc12` [Example 189, 1-(6-isopropyl-4-(ethyl(methyl)amino)quinazolin-2-yl)-1H-pyrazole-4-carboxylic acid], in assay [1], the “Enzyme pIC50” value stood at 6.8. Moreover, the activation at 100 µM in assay [2] was 36%.

With `CC(C)c1ccc2nc(-n3cc(C(=O)O)cn3)nc(N(C)C)c2c1` [Example 185, 1-(4-(dimethylamino)-6-isopropylquinazolin-2-yl)-1H-pyrazole-4-carboxylic acid], in assay [1], the “Enzyme pIC50” value amounted to 7.0. For the same molecule, the activation at 100 µM in assay [2] amounted to 62%.

For the molecule `CCN(CC)c1nc(-n2cc(C(=O)O)cn2)nc2ccc(Oc3ccc(Cl)cc3)cc12` [Example 60, 1-(6-(4-Chlorophenoxy)-4-(diethylamino)quinazolin-2-yl)-1H-pyrazole-4-carboxylic acid], the “Enzyme pIC50” value in assay [1] is given as 7.3. The activation at 100 µM in assay [2] amounted to 22%.
